We go through 24 compounds from PubChem BioAssay AID1626 (SRMLSC, 2009).

The subject of the assay is M. tuberculosis H37Rv growth inhibition. Description: M. tuberculosis H37Rv growth inhibitors, H37Rv strain (AID 1626). The note with it: for IC90: measured here: IC90 against H37Rv; for CC50: measured here: Vero cell cytotoxicity.

A value given as a limit tells only on which side of the number the result lay.

As usually defined, the IC50 is the concentration that inhibits the measured activity by half. In general, IC90 refers to the concentration at which the effect reaches the 90% level. Higher therefore signals a need for much substance. Usually CC50 stands for the concentration giving 50% cytotoxicity. The low end stands for greater toxicity to the cells, the high end for lower toxicity to the cells. As to `COCc1ccc(O)c2ncccc12`, the IC50 was 10.9 µM, the IC90 worked out at 12 µM and the cytotoxic concentration (CC50) worked out at 9.76 µM.
On to `Cc1ccc(C(C(=O)Nc2ccc3c(c2)OCO3)N(C)C(=O)/C=C\c2ccc3c(c2)OCO3)cc1` (stereo not given), for which the IC50 is 45.5 µM and the IC90 is over 100 µM.
Take `COC(=O)c1cc(-c2ccc(OC)c(OC)c2)on1`: the half-maximal inhibitory concentration (IC50) is under 0.391 µM and the IC90 was over 100 µM.
Consider `O=c1oc2ccccc2nc1/C=C(\O)c1ccccc1`, for which the 50% inhibitory concentration (IC50) was 6.59 µM and the IC90 was over 100 µM.
On to `c1ccc(CN2CCC(Nc3nc(-c4cccs4)nc4ccccc34)CC2)cc1`, for which the half-maximal inhibitory concentration (IC50) was 4.78 µM, the IC90 was 6.93 µM and the CC50 came to 17.5 µM.
In the case of `Cc1sc2nc(CN3CCOCC3)[nH]c(=S)c2c1C`, the IC50 was 13.3 µM, the IC90 was over 100 µM and the CC50 was over 40 µM.
For `CC(=O)Nc1nc2ccccc2n1Cc1ccccc1Cl`, the IC50 is under 0.195 µM, the IC90 is over 100 µM and the CC50 was 16.3 µM.
In the case of `Cc1c(-c2cccc(Cl)c2)nc2ccccc2c1C(=O)OCC(=O)Nc1ccc2c(c1)OCO2`, the IC50 is 10.9 µM, the IC90 is over 100 µM and the CC50 was 38.8 µM.
For `N#CC(C#N)=c1ccc2c(c1)N1C(c3ccccc3)=CC(c3ccccc3)C3CCCCC31N=2` (stereo not given), the IC50 was 28.3 µM and the IC90 was over 100 µM.
The compound `COc1ccc(NCN2C(=O)CCC2=O)cc1` showed an IC90 of over 100 µM.
In the case of `O=C(Nc1nnc(-c2ccccc2)o1)c1ccc(Cl)cc1`, the IC50 was under 0.195 µM, the IC90 came to 95.1 µM and the cytotoxic concentration (CC50) came out at 34.3 µM.
Consider `COc1cc(/C=C/C(=O)c2c(O)n(CCc3ccccc3)c(=O)[nH]c2=O)ccc1O`, for which the concentration for half-maximal inhibition (IC50) was 7.57 µM, the IC90 stood at 11.3 µM and the CC50 stood at 20.2 µM.
`COc1ccc(-c2cc(C(F)(F)F)n3ncc(C(=O)N4CCCCC4c4cccnc4)c3n2)cc1` (stereo not given) had an IC90 of over 100 µM.
Turning to `CSc1ccc(NC(=O)N2CC=C(n3c(=O)[nH]c4ccccc43)CC2)cc1`, the CC50 is over 40 µM.
Consider `COc1ccc2nc(/N=C(\N)NC(=O)N3c4ccccc4Sc4ccccc43)nc(C)c2c1`, for which the concentration for half-maximal inhibition (IC50) was 28.5 µM, the IC90 is over 100 µM and the 50% cytotoxic concentration (CC50) is over 40 µM.
With `CC(C)c1c(O)nc(SCC(=O)Nc2ccc3c(c2)CCC3)[nH]c1=O`, the half-inhibitory concentration (IC50) is 32.8 µM and the concentration for an effect of 90% (IC90) was over 100 µM.
For the compound `CCOC(=O)c1ccc(NC(=O)CCc2nc(-c3ccccc3Cl)no2)cc1`, the IC50 is 0.511 µM, the IC90 came out at 57.8 µM and the cytotoxic concentration (CC50) is over 40 µM.
For `COC(=O)CC(=O)N1CCN(c2ccc(Cl)c(Cl)c2)CC1`, the half-inhibitory concentration (IC50) is 11.9 µM and the 90% effect concentration (IC90) amounted to 25.2 µM.
Take `CC(C)c1ccc(-n2cccc2/C=C2/C(=N)N3C=CSC3=NC2=O)cc1`: the IC50 was 11.9 µM, the IC90 is over 100 µM and the cytotoxic concentration (CC50) was over 40 µM.
As for `CCCCCc1cc(=O)oc2c(C(CCN3CCCC(C)C3)c3cc(OC)c(OC)c(OC)c3)c(OC)cc(OC)c12` (stereo not given), the IC50 was 7.65 µM, the IC90 was found to be 9.84 µM and the half-maximal cytotoxic concentration (CC50) is 14.5 µM.
The matching figures for `Cc1cccc(C(=O)Nc2ccc(C(=O)/C=C/c3cccnc3)cc2)c1`: 6.04 µM, 9.07 µM and 22.3 µM.
`CC(C)c1nnc(NC(=O)c2c(O)c3cccc4c3n(c2=O)CCC4)s1`: the IC50 was 0.604 µM, the IC90 worked out at 0.731 µM and the CC50 came to 6.5 µM.
`CCOc1ccc(N=C/C=C/c2ccccc2)c(O)c1`: the 50% inhibitory concentration (IC50) is 0.939 µM, the concentration for an effect of 90% (IC90) came to 5.41 µM and the cytotoxic concentration (CC50) is 38 µM.
For `CNC(=O)c1nnsc1S(=O)(=O)c1ccc(Cl)cc1`, in that order: 21.6 µM, 22.2 µM and 8.55 µM.
